Assay results reported in patent US20240374763A1, “DIAGNOSIS AND MONITORING USING EXTRADOMAIN-B FIBRONECTIN TARGETED PROBES” (Case Western Reserve University, priority 2020, published 2024).
One block for each molecule: values may come before it. No end group written: not given here.

How the values were obtained:
DLD1-DR cells = DLD1-DR cells developed with resistance to 5′-FU; cited from earlier work
DLD-1 cells = details: cited from earlier work
HSC3 tumors = assay: MRMI of OSCC flank xenografts, HSC3; assay type: in vivo, mice; details: gadoteridol 0.10 mmol/kg
Procedure: (§1) Animal experiments were performed under an animal protocol approved by the Institutional Animal Care and Use Committee (IACUC) at Case Western Reserve University (CWRU, Cleveland, OH, USA). Female 4-week-old athymic nude mice purchased from the Jackson Laboratory (Bar Harbor, ME, USA) were housed in the Animal Core Facility at CWRU. Anesthetized mice were subcutaneously inoculated in the right flank with 4×10^6 GFP/luciferase-expressing OSCC cells (n=5 per cell line) in 100 μL of a 1:1 mixture of Matrigel HC (Corning) and DPBS. Tumor size was monitored with caliper measurements. After 4 weeks of growth, tumors were sufficiently large for MRI experiments.
MRI experiments were performed with a 3T MRS-3000 system (MR Solutions, Surrey, UK). Tumor-bearing mice were imaged before and at 10, 20, […] spin-echo axial sequence with respiratory gating (TR=305 ms, TE=11 ms, FOV=40×40 mm, slice thickness=1 mm, number of slices=15, Nav=2, matrix=256×248). This protocol was repeated on the same mice 2 days later using the untargeted clinical agent gadoteridol at the clinical dose of 0.10 mmol/kg.
(§2) Images were exported in DICOM format and analyzed using FIJI. Contrast-to-noise ratio (CNR) for each time point was calculated as the difference between the mean tumor intensity and the mean muscle intensity, divided by the standard deviation of noise.

[1] = system: BxPC3-GFP-Luc intrapancreatic tumors; assay: MRMI of BxPC3-GFP-Luc intrapancreatic tumors; assay type: in vivo, mice; details: 0.1 mmol/kg, 10 min post-injection
Procedure: (§3) For flank xenograft models, 4×10^6 Capan-1 cells suspended in 100 μL of a 6 mg/mL Matrigel (Corning, Corning, NY) solution was injected subcutaneously into the flank of eight-week-old female nu/nu mice. The tumor bearing mice were imaged after tumor volumes exceeded 300 mm^3. For orthotopic intrapancreatic models, the pancreas of four-week-old female nu/nu mice were surgically exposed and 1×10^6 BxPC3-GFP-Luc or PANC-1-GFP-Luc cells suspended in 100 μL of an Matrigel solution (6 mg/mL) was injected into the pancreatic tissue. Prior to imaging, growth of tumor was verified by bioluminescence imaging with intraperitoneal injection of d-luciferin on IVIS Spectrum system (Perkin Elmer, Waltham, MA).
(§4) Mice bearing intrapancreatic tumors were anesthetized and a tail vein catheter was inserted. Image acquisition was performed on a MR Solutions 3T MRS 3000 scanner with a mouse radiofrequency coil. Axial images were obtained using a Fast Spin Echo (FSE) MRI sequence (305 ms TR, 11 ms TE, 90° F.A, 4 cm×4 cm FOV, 1 mm slice thickness, 10 slices, echo train length=4, echo spacing=11 ms, 4 averages, 256×256 matrix, […] cm/pixel resolution) with respiratory gating. Images were acquired before contrast and at different time points after contrast injection at a dose of 0.1 mmol/kg (100 μL). For competitive binding experiments, a 5:1 molar ratio of free ZD2 peptide to MT218 was injected in mice bearing intrapancreatic BxPC3 tumor xenografts (n=3) at a dose of 0.1 mmol MT218/kg (100 μL). Images obtained on the MR Solutions 3T scanner were normalized using the Surscalereader.exe (MR Solutions, Guildford, UK) program supplied.
(§5) Image files were exported and analyzed in Horus software. ROIs were drawn in the tumor, liver, kidney, and muscle. Muscle ROIs were taken from muscle, with other structures (liver, kidney, tumor) identified after comparison with published images and comparison with anatomical landmarks or bioluminescent imaging. Size of ROIs drawn for image analysis are summarized in Supplemental Table S1. The contrast-to-noise ratio of the tumor (CNR) was calculated using the following equation, where σ_noise is the standard deviation of intensities from an ROI drawn outside of the mouse body:
Image contrast was reported as fold enhancement of contrast to noise ratio of postcontrast images over precontrast images using Fold Enhancement=CNRpost/CNRpre. Statistical analysis of CNR was performed in Minitab Express (Minitab Inc, State College, PA). One-way ANOVA with Fisher Individual Tests for Differences of Means post-hoc testing was performed to determine statistical significance between greater than two means (p<0.05). Student's T test was used to determine statistical significance between two means (p<0.05).

SCC4 tumors = assay: MRMI of OSCC flank xenografts, SCC4; assay type: in vivo, mice; details: gadoteridol 0.10 mmol/kg
Procedure: as §1
MRI experiments were performed with a 3T MRS-3000 system (MR Solutions, Surrey, UK). […] This protocol was repeated on the same mice 2 days later using the untargeted clinical agent gadoteridol at the clinical dose of 0.10 mmol/kg.
as §2

CAL27 tumors = assay: MRMI of OSCC flank xenografts, CAL27; assay type: in vivo, mice; details: gadoteridol 0.10 mmol/kg
Procedure: as §1
MRI experiments were performed with a 3T MRS-3000 system (MR Solutions, Surrey, UK). Tumor-bearing mice were imaged before and at 10, 20, and 30 minutes post-injection of the targeted contrast agent, MT218 (Molecular Theranostics, LLC, Cleveland, OH, USA), at a dose of 0.04 mmol/kg using a T1-weighted fast spin-echo axial sequence with respiratory gating (TR=305 ms, TE=11 ms, FOV=40×40 mm, slice thickness=1 mm, number of slices=15, Nav=2, matrix=256×248). […]
as §2

[2] = system: Capan-1 flank tumor xenografts; assay: MRMI of Capan-1 flank tumor xenografts; assay type: in vivo, mice; details: 0.1 mmol/kg; MT218 at 15 minutes post-injection, maintained at least 35 minutes; Gd(HP-DO3A) for the duration of the experiment
Procedure: as §3
Flank tumor-bearing mice were anesthetized and a tail vein catheter inserted. MR image acquisition was performed on a 7T Biospin (Bruker, Billerica, MA) preclinical small animal scanner with a volume radiofrequency coil. Axial images were obtained using a multi-spin multi-echo (MSME) MRI sequence (500 ms TR, 8.1 ms TE, 900 FA, 4.50 cm×4.50 cm FOV, 1.50 mm slice thickness, 16 slices, 2 averages, 200×200 matrix, 0.0225×0.0225 cm/pixel resolution). Contrast agents were injected at a dose of 0.1 mmol/kg (100 μL) via the tail vein catheter, followed by a saline flush. Images of the tumors were acquired before contrast and at various time points after contrast administration. Gd(HP-DO3A) was used as a control.
as §5, with “body: […]” for “body:”

Relaxivity measurements = assay type: physicochemical; details: at 3 T, DPBS buffer
Procedure: The T1 and T2 values of MT218 and Gd(HP-DO3A) solutions were determined using a 3T MRS 3000 scanner (MR Solutions, Guildford, UK). Solutions of MT218 were prepared at concentrations of 0, 0.25, 0.5, 1, and 2 mM in DPBS buffer (Gibco, Gaithersburg, MD). T1 values were measured using an inversion recovery-fast low angle shot (IR-FLASH) sequence (i=10 ms, TE=4 ms, FA=8°, echoes/frames=128, FOV=40 mm×40 mm, slice thickness =2 mm, number of averages=1, time delay=4000 ms, sample period=200, matrix=256×128). T2 values were obtained using a multi-echo multi-slice (MEMS) sequence (TE=15 ms, […], echoes=10, FOV: 40 mm×40 mm, slice thickness=1 mm, number of averages=1, matrix=256×192). The r1 and r2 relaxivities were calculated from the slopes of 1/T1 and 1/T2 vs. Gd concentration plots, respectively.

[3] = system: PANC-1-GFP-Luc intrapancreatic tumor xenografts; assay: MRMI of PANC-1-GFP-Luc intrapancreatic tumor xenografts; assay type: in vivo, mice; details: 0.1 mmol/kg, 10 min postinjection
Procedure: as §3, §4
Image files were exported and analyzed in Horus software. ROIs were drawn in the tumor, liver, kidney, and muscle. […] The contrast-to-noise ratio of the tumor (CNR) was calculated using the following equation, where σ_noise is the standard deviation of intensities from an ROI drawn outside of the mouse body: […]

[4] = biological target: T1, EDB fragment of FN (expressed in E. coli, labelled with NT-647) (UniProt P02751 1266-1356, limits assumed, labelled with amine-reactive dye NT-647); assay: microscale thermophoresis, MT218 titrated against a fixed concentration of NT-647-labelled EDB fragment, 25 °C [panel B]
T1 construct: domain: EDB fragment of FN
Procedure: (§6) The binding affinity of MT218 was determined with microscale thermophoresis (MST) using a Nanotemper™ Monolith NT.115 instrument (NanoTemper Technologies, Munich, Germany). The EDB fragment of FN was expressed in E. coli, purified, and labelled with amine-reactive dye NT-647. MT218 was dissolved into assay buffer (50 mM PBS w/0.05% Tween-20). This solution was further diluted using assay buffer to give a series of MT218 working solutions. Each MT218 working solution was then mixed with a fixed concentration of fluorescently labeled EDB fragment. The mixtures of MT218 and EDB were then loaded into standard capillaries, and MST measurements were performed at 25° C. using 20-80% light-emitting diode power and 40% infrared-laser power at varying concentrations of MT218.

[5] = biological target: extradomain-B fibronectin (EDB-FN) (human) (UniProt P02751); assay: cell-based or functional assay
[6] = biological target: T1, EDB fragment of FN (expressed in E. …); assay: microscale thermophoresis, NT-647-labelled EDB fragment at fixed concentration, MT218 titrated, 25 °C
Procedure: as §6
MT218 is a small molecular conjugate of ZD2 peptide to a macrocyclic clinical MRI contrast agent Gd(HP-DO3A). […] The T₁ and T₂ relaxivities of MT218 were measured to be 6.07±1.13 s⁻¹ mM⁻¹ and 8.20±0.18 s⁻¹ mM⁻¹, respectively, at 3 T. T₁ and T₂ relaxivities of Gd(HP-DO3A) were measured to be 3.20±0.96 s⁻¹ mM⁻¹ and 5.12±0.18 s⁻¹ mM⁻¹, respectively, at 3 T.

T1 sequence (P02751 1266-1356 limits assumed): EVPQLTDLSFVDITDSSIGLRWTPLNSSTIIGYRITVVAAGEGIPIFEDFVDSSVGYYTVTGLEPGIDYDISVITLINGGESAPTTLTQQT
Sequence of extradomain-B fibronectin (EDB-FN) (human) (P02751 32-2477): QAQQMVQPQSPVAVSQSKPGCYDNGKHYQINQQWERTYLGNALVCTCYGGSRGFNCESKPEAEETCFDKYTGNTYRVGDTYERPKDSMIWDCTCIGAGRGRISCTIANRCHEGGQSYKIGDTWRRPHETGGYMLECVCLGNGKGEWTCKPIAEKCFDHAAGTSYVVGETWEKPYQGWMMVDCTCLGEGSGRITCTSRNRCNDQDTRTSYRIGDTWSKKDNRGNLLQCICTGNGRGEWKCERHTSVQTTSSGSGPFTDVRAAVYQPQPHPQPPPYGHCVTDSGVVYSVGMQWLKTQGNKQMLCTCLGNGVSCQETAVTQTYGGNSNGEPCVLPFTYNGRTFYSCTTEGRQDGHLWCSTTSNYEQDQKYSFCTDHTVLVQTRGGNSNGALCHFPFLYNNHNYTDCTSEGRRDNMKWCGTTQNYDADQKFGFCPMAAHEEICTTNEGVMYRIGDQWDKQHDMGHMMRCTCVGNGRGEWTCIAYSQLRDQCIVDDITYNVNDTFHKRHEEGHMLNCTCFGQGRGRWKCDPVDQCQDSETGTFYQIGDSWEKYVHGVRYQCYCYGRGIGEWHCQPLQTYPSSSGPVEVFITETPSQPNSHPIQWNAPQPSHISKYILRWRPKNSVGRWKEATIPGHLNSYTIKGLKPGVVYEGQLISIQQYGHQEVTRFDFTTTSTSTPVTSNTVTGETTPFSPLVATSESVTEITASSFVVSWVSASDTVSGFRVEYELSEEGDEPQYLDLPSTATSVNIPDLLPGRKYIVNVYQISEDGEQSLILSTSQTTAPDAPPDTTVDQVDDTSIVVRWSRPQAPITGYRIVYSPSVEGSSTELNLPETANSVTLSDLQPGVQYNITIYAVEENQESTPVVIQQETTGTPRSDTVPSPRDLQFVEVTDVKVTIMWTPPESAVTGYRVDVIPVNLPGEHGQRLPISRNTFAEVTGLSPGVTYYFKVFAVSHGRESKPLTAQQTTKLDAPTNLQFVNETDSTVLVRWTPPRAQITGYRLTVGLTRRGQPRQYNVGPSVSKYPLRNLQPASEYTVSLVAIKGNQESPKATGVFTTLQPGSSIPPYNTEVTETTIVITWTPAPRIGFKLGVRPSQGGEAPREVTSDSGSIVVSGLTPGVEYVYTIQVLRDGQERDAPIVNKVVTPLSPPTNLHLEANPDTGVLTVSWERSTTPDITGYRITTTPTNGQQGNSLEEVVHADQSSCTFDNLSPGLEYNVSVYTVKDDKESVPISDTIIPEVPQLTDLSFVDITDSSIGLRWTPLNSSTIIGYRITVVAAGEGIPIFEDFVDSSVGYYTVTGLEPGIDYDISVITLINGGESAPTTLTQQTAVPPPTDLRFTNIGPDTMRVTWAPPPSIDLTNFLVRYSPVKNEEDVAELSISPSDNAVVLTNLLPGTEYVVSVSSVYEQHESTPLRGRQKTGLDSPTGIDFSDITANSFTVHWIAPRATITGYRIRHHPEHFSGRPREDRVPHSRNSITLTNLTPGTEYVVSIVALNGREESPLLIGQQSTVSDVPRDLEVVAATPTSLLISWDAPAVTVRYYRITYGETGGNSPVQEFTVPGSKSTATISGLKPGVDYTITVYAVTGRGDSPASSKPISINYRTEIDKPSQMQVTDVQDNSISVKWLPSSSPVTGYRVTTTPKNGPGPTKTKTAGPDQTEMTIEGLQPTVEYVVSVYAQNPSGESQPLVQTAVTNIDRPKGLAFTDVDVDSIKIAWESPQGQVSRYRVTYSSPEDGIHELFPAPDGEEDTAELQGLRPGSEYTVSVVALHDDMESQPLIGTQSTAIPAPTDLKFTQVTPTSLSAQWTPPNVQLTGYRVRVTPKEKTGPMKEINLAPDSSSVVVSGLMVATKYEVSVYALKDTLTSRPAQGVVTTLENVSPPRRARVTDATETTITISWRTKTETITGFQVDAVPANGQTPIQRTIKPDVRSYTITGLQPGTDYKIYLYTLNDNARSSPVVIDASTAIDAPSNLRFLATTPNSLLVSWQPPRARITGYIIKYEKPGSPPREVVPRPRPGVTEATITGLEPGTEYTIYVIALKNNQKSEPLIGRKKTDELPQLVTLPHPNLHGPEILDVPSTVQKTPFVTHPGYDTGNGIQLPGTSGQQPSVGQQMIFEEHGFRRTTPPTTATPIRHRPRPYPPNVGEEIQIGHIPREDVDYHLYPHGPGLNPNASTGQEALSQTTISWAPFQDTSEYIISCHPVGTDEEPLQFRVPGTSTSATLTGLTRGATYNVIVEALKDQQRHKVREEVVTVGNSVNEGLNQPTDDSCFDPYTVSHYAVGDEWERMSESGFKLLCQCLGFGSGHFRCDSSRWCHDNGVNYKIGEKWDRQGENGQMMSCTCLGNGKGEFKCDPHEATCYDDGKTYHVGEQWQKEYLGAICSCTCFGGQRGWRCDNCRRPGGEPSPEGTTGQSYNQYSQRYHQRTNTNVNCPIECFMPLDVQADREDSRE

Molecule: O=c1[nH]cc(F)c(=O)[nH]1 [5′-FU, 5′-fluorouracil]
- IC50 (DLD1-DR cells): 211 µM
- IC50 (DLD-1 cells): 2.5 µM

- T1 relaxivity (Relaxivity measurements): 3.20 ± 0.96 s⁻¹ mM⁻¹
- T2 relaxivity (Relaxivity measurements): 5.12 ± 0.18 s⁻¹ mM⁻¹
Molecule: Gd(HP-DO3A) [gadoteridol, reference compound]
- average maximum enhancement (CNR) (HSC3 tumors): 2.18±0.07
- tumor CNR increase [1]: approximately 2.5 fold
- average maximum enhancement (CNR) (SCC4 tumors): 2.57±0.28
- average maximum enhancement (CNR) (CAL27 tumors): 2.27±0.18
- increase of contrast to noise ratio (CNR) [2]: 1.77 fold
- intratumoral CNR increase [3]: 2.35 fold

- EC50 (read off the curve) [4]: ~3 µM
- tumor CNR increase (MRMI) in the BxPC3-GFP-Luc intrapancreatic model, MT218 co-injected with an excess of free ZD2 peptide [5]: 2.5 fold
- tumor CNR increase (MRMI) in the BxPC3-GFP-Luc intrapancreatic model, MT218 without the free peptide [5]: 4.5 fold
- Kd [6]: 3.2 µM
B1: ZD2-N3-Gd(HP-DO3A) (MT218) (peptide)
peptide: TVRTSAD
modifications: also: conjugated to Gd(HP-DO3A) by click reaction of alkynyl-ZD2 with N3-Gd(HP-DO3A), residue of attachment not given here, Gd complex
notes: Small peptide conjugate of the clinical contrast agent gadoteridol; also called EDB-FN-targeted contrast agent; ZD2 targeted MRI contrast agent
